According to patent publication US20260345621A1, “GABAA RECEPTOR MODULATORS AND USES THEREOF” (Engrail Therapeutics, Inc., priority 2022, published 2026):
Like-named read-outs stand apart in the source and are kept apart here.

Assay: Multiple ascending dose study, plasma pharmacokinetics
Format: in vivo, human (healthy volunteers)
Details: for half-life / AUC tau / Cmax at 288 h / Tmax at 288 h: Day 12; for AUC(0-t) at 24 h / Cmax at 24 h / Tmax at 24 h: Day 1
Method: A clinical study was developed to evaluate safety, tolerability, pharmacokinetics, and pharmacodynamics of Compound 1 at plasma steady-state in 40 healthy human volunteers. Compound 1 (provided as Compound 1 phosphate) was administered to participants as multiple ascending doses of 0.5 mg (N=6), 1.0 mg (N=6), 1.5 mg (N=6), 2.0 mg (N=6), or 5.0 mg (N=6) once daily (QD) for 12 days.
Blood samples were collected, and plasma concentrations were measured using a validated high performance liquid chromatography/liquid chromatography-mass spectrometry/mass spectrometry method. The PK parameters assessed included Cmax, Tmax, AUC from administration to the end of dosing (AUC0-t), AUC0-24, AUC0-inf, t1/2, terminal rate constant (λz), apparent total clearance of the drug from plasma (CL/F), and apparent volume of distribution during terminal phase after non-intravenous administration (Vz/F).
The plasma concentration data for Compound 1 were summarized by dose level and the planned sampling time points using descriptive statistics (n, SD, median, minimum, maximum, geometric mean, and coefficient of variance (CV %) for the geometric mean) for the PK Analysis Set.
Specifically, samples for PK analyses were taken on Day 1 and Day 12 pre-dose, 0.5, 1, 1.5, 3, 6, 8, 10, and 12 h post-dose, with additional samples taken on every dosing Day (24 hours after the previous day's dose) and 24, 72, 168, and 336 h after last dosing on Day 12. All individual Compound 1 concentrations were above the LLOQ of 0.0500 ng/mL at 0.5 h post-dose, except for 1 participant, for whom the concentration was above the LLOQ at 1 h post-dose.

[1] = human, plasma, po, 1 mg, 1.0 mg oral QD, read-out: Cmax (mean)
[2] = human, plasma, po, 1 mg, 1.0 mg oral QD, read-out: Cmax (median)
[3] = human, plasma, po, 1.5 mg, 1.5 mg oral QD, read-out: Cmax (mean)
[4] = human, plasma, po, 1.5 mg, 1.5 mg oral QD, read-out: Cmax (median)
[5] = human, plasma, po, 2 mg, 2.0 mg oral QD, read-out: Cmax (mean)
[6] = human, plasma, po, 2 mg, 2.0 mg oral QD, read-out: Cmax (median)
[7] = human, plasma, po, 5 mg, 5.0 mg oral QD, read-out: Cmax (mean)
[8] = human, plasma, po, 5 mg, 5.0 mg oral QD, read-out: Cmax (median)
[9] = human, plasma, 0.5 mg oral QD, read-out: Tmax (median)
[10] = human, plasma, 1.0 mg oral QD, read-out: Tmax (median)
[11] = human, plasma, 1.5 mg oral QD, read-out: Tmax (median)
[12] = human, plasma, 2.0 mg oral QD, read-out: Tmax (median)
[13] = human, plasma, 5.0 mg oral QD, read-out: Tmax (median)

Molecule `CC(C)(O)c1cnn2c(-c3ccc(F)c(-c4c(F)cccc4C#N)c3)cnc2n1` [Compound 1, 2′,6-difluoro-5′-(3-(2-hydroxypropan-2-yl)imidazo[1,2-b][1,2,4]triazin-7-yl)-[1,1′-biphenyl]-2-carbonitrile] has a half-life (human, plasma, po, 0.5 mg, 0.5 mg oral QD, read-out: t1/2 (mean) (converted)) of 66 ± 24 h, a half-life (human, plasma, po, 0.5 mg, 0.5 mg oral QD, read-out: t1/2 (median) (converted)) of 64.3 h and an AUC(0-t) at 24 h (human, plasma, po, 1 mg, 1.0 mg oral QD, read-out: AUC0-24 (mean)) of 118 ± 27 ng·h/mL. The AUC(0-t) at 24 h (human, plasma, po, 1 mg, 1.0 mg oral QD, read-out: AUC0-24 (median)) was 117 ng·h/mL, the Cmax at 24 h [1] was 8.5 ± 3 ng/mL and the Cmax at 24 h [2] was 8.99 ng/mL. The AUC tau (human, plasma, po, 1 mg, 1.0 mg oral QD, read-out: AUCtau (mean)) was 410 ± 115 ng·h/mL, the AUC tau (human, plasma, po, 1 mg, 1.0 mg oral QD, read-out: AUCtau (median)) was 416 ng·h/mL and the Cmax at 288 h [1] was 23.3 ± 5 ng/mL. It also gave a Cmax at 288 h [2] of 22.6 ng/mL, a half-life (human, plasma, po, 1 mg, 1.0 mg oral QD, read-out: t1/2 (mean) (converted)) of 61 ± 29 h and a half-life (human, plasma, po, 1 mg, 1.0 mg oral QD, read-out: t1/2 (median) (converted)) of 58.2 h. The AUC(0-t) at 24 h (human, plasma, po, 1.5 mg, 1.5 mg oral QD, read-out: AUC0-24 (mean)) was 217 ± 48 ng·h/mL, the AUC(0-t) at 24 h (human, plasma, po, 1.5 mg, 1.5 mg oral QD, read-out: AUC0-24 (median)) was 227 ng·h/mL and the Cmax at 24 h [3] was 18.8 ± 7 ng/mL. It also gave a Cmax at 24 h [4] of 18.2 ng/mL, an AUC tau (human, plasma, po, 1.5 mg, 1.5 mg oral QD, read-out: AUCtau (mean)) of 706 ± 84 ng·h/mL and an AUC tau (human, plasma, po, 1.5 mg, 1.5 mg oral QD, read-out: AUCtau (median)) of 738 ng·h/mL. For the same molecule, the Cmax at 288 h [3] was 41.7 ± 5 ng/mL, the Cmax at 288 h [4] was 42.6 ng/mL and the half-life (human, plasma, po, 1.5 mg, 1.5 mg oral QD, read-out: t1/2 (mean) (converted)) was 51 ± 18 h. For the same molecule, the half-life (human, plasma, po, 1.5 mg, 1.5 mg oral QD, read-out: t1/2 (median) (converted)) was 49.1 h, the AUC(0-t) at 24 h (human, plasma, po, 2 mg, 2.0 mg oral QD, read-out: AUC0-24 (mean)) was 244 ± 48 ng·h/mL and the AUC(0-t) at 24 h (human, plasma, po, 2 mg, 2.0 mg oral QD, read-out: AUC0-24 (median)) was 226 ng·h/mL. The Cmax at 24 h [5] was 19.6 ± 4 ng/mL, the Cmax at 24 h [6] was 19.9 ng/mL and the AUC tau (human, plasma, po, 2 mg, 2.0 mg oral QD, read-out: AUCtau (mean)) was 873 ± 331 ng·h/mL. It also gave an AUC tau (human, plasma, po, 2 mg, 2.0 mg oral QD, read-out: AUCtau (median)) of 891 ng·h/mL, a Cmax at 288 h [5] of 49.8 ± 17 ng/mL and a Cmax at 288 h [6] of 48.2 ng/mL. The half-life (human, plasma, po, 2 mg, 2.0 mg oral QD, read-out: t1/2 (mean) (converted)) was 61 ± 26 h, the half-life (human, plasma, po, 2 mg, 2.0 mg oral QD, read-out: t1/2 (median) (converted)) was 52.3 h and the AUC(0-t) at 24 h (human, plasma, po, 5 mg, 5.0 mg oral QD, read-out: AUC0-24 (mean)) was 642 ± 125 ng·h/mL. The AUC(0-t) at 24 h (human, plasma, po, 5 mg, 5.0 mg oral QD, read-out: AUC0-24 (median)) was 609 ng·h/mL, the Cmax at 24 h [7] was 49.7 ± 13 ng/mL and the Cmax at 24 h [8] was 49.5 ng/mL. For the same molecule, the AUC(0-t) at 24 h (human, plasma, po, 5 mg, 5.0 mg oral QD, read-out: highest individual AUC0-24) was 853 ng·h/mL, the AUC tau (human, plasma, po, 5 mg, 5.0 mg oral QD, read-out: AUCtau (mean)) was 1800 ng·h/mL and the AUC tau (human, plasma, po, 5 mg, 5.0 mg oral QD, read-out: AUCtau (median)) was 1800 ng·h/mL. The Cmax at 288 h [7] was 99.1 ng/mL, the Cmax at 288 h [8] was 106 ng/mL and the AUC tau (human, plasma, po, 5 mg, 5.0 mg oral QD, read-out: highest individual AUCtau) was 2170 ng·h/mL. The half-life (human, plasma, po, 5 mg, 5.0 mg oral QD, read-out: t1/2 (mean) (converted)) was 39 ± 9 h, the half-life (human, plasma, po, 5 mg, 5.0 mg oral QD, read-out: t1/2 (median) (converted)) was 37.1 h and the concentration at 0.5 h (human, plasma, po, 0.5 h post-dose, all except 1 participant, read-out: individual plasma concentrations versus LLOQ) was > 0.05 ng/mL. It also gave a Tmax (human, plasma, po, Day 1 and Day 12, all doses except 5.0 mg on Day 1, read-out: Tmax (median)) of 3 h, a Tmax at 24 h [9] of 3 h and a Tmax at 288 h [9] of 3 h. For the same molecule, the Tmax at 24 h [10] was 3 h, the Tmax at 288 h [10] was 3 h and the Tmax at 24 h [11] was 3 h. The Tmax at 288 h [11] was 3 h, the Tmax at 24 h [12] was 3 h and the Tmax at 288 h [12] was 3 h. It also gave a Tmax at 24 h [13] of 4.5 h, a Tmax at 288 h [13] of 3 h and a Tmax at 24 h (human, plasma, up to 2.0 mg oral QD, read-out: Tmax (median)) of 3 h. For the same molecule, the absorption (oral) was “rapidly absorbed”, the “end of absorption and distribution phase” value (plasma, after which elimination phase commenced) was “approximately 12 h” and the concentration decline profile (plasma, oral QD) was “bi-exponential decline”. The “variability in key PK parameters” value (up to 5.0 mg repeatedly for 12 days) was “acceptable”.
